Data from patent US8952024B2, “Herbicidal pyrimidone derivatives” (E I du Pont de Nemours and Company, priority 2009, dated 2015).

Tests used:
Format in all cases: in vivo
[1] = test system: barnyardgrass (Echinochloa crus-galli); assay: Test B flooded paddy test; settings: for Plant response rating, Flood, Barnyardgrass: 250 g ai/ha, flooded paddy test, visual rating on 0 to 100 scale (0 no effect, 100 complete control) after 13 to 15 days; for Plant response rating, Barnyardgrass: Flood (flooded paddy test), 13 to 15 days
Method in brief: (§1)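 Visual scores run from 0 (no effect) to 100 (complete control), assigned by comparison with controls 13 to 15 days after treatment. Test compounds went straight into water standing 3 cm above the soil, around plants at the 2-leaf stage kept in a greenhouse.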

[2] = test system: umbrella sedge (Cyperus difformis); assay: Test B flooded paddy test; settings: for Plant response rating, Flood, Sedge, Umbrella: 250 g ai/ha, flooded paddy test, visual rating on 0 to 100 scale (0 no effect, 100 complete control) after 13 to 15 days; for Plant response rating, Sedge, Umbrella: Flood (flooded paddy test), 13 to 15 days
Method in brief: as §1

[3] = test system: ducksalad (Heteranthera limosa); assay: Test B flooded paddy test; settings: for Plant response rating, Flood, Ducksalad: 250 g ai/ha, flooded paddy test, visual rating on 0 to 100 scale (0 no effect, 100 complete control) after 13 to 15 days; for Plant response rating, Ducksalad: Flood (flooded paddy test), 13 to 15 days
Method in brief: as §1

[4] = test system: rice (Oryza sativa); assay: Test B flooded paddy test; settings: for Plant response rating, Flood, Rice: 250 g ai/ha, flooded paddy test, visual rating on 0 to 100 scale (0 no effect, 100 complete control) after 13 to 15 days; for Plant response rating, Rice: Flood (flooded paddy test), 13 to 15 days
Method in brief: as §1

[5] = test system: velvetleaf (Abutilon theophrasti); assay: Test A pre-/postemergence plant response
Method in brief: (§2)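 Injury was scored visually after roughly ten days against untreated controls, 0 = no effect, 100 = complete control. Test chemicals in a surfactant-containing non-phytotoxic solvent were sprayed either onto soil preemergence or onto one- to two-leaf, 2–10 cm plants postemergence.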

[6] = test system: wheat (Triticum aestivum); assay: Test A pre-/postemergence plant response
Method in brief: as §2

[7] = test system: giant foxtail (Setaria faberii); assay: Test A pre-/postemergence plant response
Method in brief: as §2

[8] = test system: barnyardgrass (Echinochloa crus-galli); assay: Test A pre-/postemergence plant response
Method in brief: as §2

[9] = test system: large crabgrass (Digitaria sanguinalis); assay: Test A pre-/postemergence plant response
Method in brief: as §2

[10] = test system: pigweed (Amaranthus retroflexus); assay: Test A pre-/postemergence plant response
Method in brief: as §2

[11] = test system: corn (Zea mays); assay: Test A pre-/postemergence plant response
Method in brief: as §2

[12] = test system: morningglory (Ipomoea spp.); assay: Test A pre-/postemergence plant response
Method in brief: as §2

[13] = 62 g ai/ha, scale 0 to 100, 0 is no effect, 100 is complete control
[14] = Postemergence, 125 g ai/ha, visual injury, 0 to 100 scale (0 no effect, 100 complete control), approx. ten days
[15] = Postemergence, 500 g ai/ha, 0 to 100 scale, 0 = no effect, 100 = complete control, approx. ten days
[16] = Preemergence, 125 g ai/ha, 0 to 100 scale, 0 = no effect, 100 = complete control
[17] = Preemergence, 500 g ai/ha, visual injury, 0 to 100 scale (0 no effect, 100 complete control), approx. ten days
[18] = 31 g ai/ha, scale of 0 to 100 where 0 is no effect and 100 is complete control
[19] = 125 g ai/ha, scale 0 to 100, 0 is no effect, 100 is complete control

O=C1CCCC(O)=C1C(=O)c1cnc(-c2ccccc2)n(-c2ccccc2F)c1=O [Compound 26]
Plant response rating, Flood, Barnyardgrass [1]: 0 | Plant response rating, Barnyardgrass [1, 13]: 0 | Plant response rating, Flood, Sedge, Umbrella [2]: 85 | Plant response rating, Sedge, Umbrella [2, 13]: 75 | Plant response rating, Flood, Ducksalad [3]: 85 | Plant response rating, Ducksalad [3, 13]: 75 | Plant response rating, Flood, Rice [4]: 0 | Plant response rating, Rice [4, 13]: 0 | Velvetleaf plant response rating [5, 14]: 100 | Plant response rating, Velvetleaf [5, 15]: 100 | Plant response rating, Velvetleaf [5, 16]: 20 | Plant response rating, Velvetleaf [5, 17]: 100 | Wheat plant response rating [6, 14]: 0 | Plant response rating, Wheat [6, 15]: 0 | Plant response rating, Wheat [6, 16]: 0 | Plant response rating, Wheat [6, 17]: 0 | Foxtail, Giant plant response rating [7, 14]: 50 | Plant response rating, Foxtail, Giant [7, 15]: 90 | Plant response rating, Foxtail, Giant [7, 16]: 30 | Plant response rating, Foxtail, Giant [7, 17]: 70 | Barnyardgrass plant response rating [8, 14]: 30 | Plant response rating, Barnyardgrass [8, 15]: 80 | Plant response rating, Barnyardgrass [8, 16]: 0 | Plant response rating, Barnyardgrass [8, 17]: 60 | Crabgrass, Large plant response rating [9, 14]: 70 | Plant response rating, Crabgrass, Large [9, 15]: 90 | Plant response rating, Crabgrass, Large [9, 16]: 20 | Plant response rating, Crabgrass, Large [9, 17]: 90 | Pigweed plant response rating [10, 14]: 90 | Plant response rating, Pigweed [10, 15]: 100 | Plant response rating, Pigweed [10, 16]: 60 | Plant response rating, Pigweed [10, 17]: 100 | Corn plant response rating [11, 14]: 0 | Plant response rating, Corn [11, 15]: 20 | Plant response rating, Corn [11, 16]: 0 | Plant response rating, Corn [11, 17]: 0 | Morningglory plant response rating [12, 14]: 50 | Plant response rating, Morningglory [12, 15]: 80 | Plant response rating, Morningglory [12, 16]: 10 | Plant response rating, Morningglory [12, 17]: 70

Cc1ccc(-n2c(-c3ccccc3)ncc(C(=O)C3=C(O)CCCC3=O)c2=O)c(C)c1 [Compound 28]
Plant response rating, Flood, Barnyardgrass [1]: 20 | Plant response rating, Barnyardgrass [1, 13]: 10 | Plant response rating, Flood, Sedge, Umbrella [2]: 80 | Plant response rating, Sedge, Umbrella [2, 13]: 70 | Plant response rating, Flood, Ducksalad [3]: 85 | Plant response rating, Ducksalad [3, 13]: 70 | Plant response rating, Flood, Rice [4]: 0 | Plant response rating, Rice [4, 13]: 0 | Velvetleaf plant response rating [5, 14]: 100 | Plant response rating, Velvetleaf [5, 15]: 100 | Plant response rating, Velvetleaf [5, 16]: 20 | Plant response rating, Velvetleaf [5, 17]: 80 | Wheat plant response rating [6, 14]: 0 | Plant response rating, Wheat [6, 15]: 0 | Plant response rating, Wheat [6, 16]: 0 | Plant response rating, Wheat [6, 17]: 0 | Foxtail, Giant plant response rating [7, 14]: 30 | Plant response rating, Foxtail, Giant [7, 15]: 80 | Plant response rating, Foxtail, Giant [7, 16]: 0 | Plant response rating, Foxtail, Giant [7, 17]: 30 | Barnyardgrass plant response rating [8, 14]: 30 | Plant response rating, Barnyardgrass [8, 15]: 90 | Plant response rating, Barnyardgrass [8, 16]: 10 | Plant response rating, Barnyardgrass [8, 17]: 70 | Crabgrass, Large plant response rating [9, 14]: 40 | Plant response rating, Crabgrass, Large [9, 15]: 80 | Plant response rating, Crabgrass, Large [9, 16]: 20 | Plant response rating, Crabgrass, Large [9, 17]: 60 | Pigweed plant response rating [10, 14]: 100 | Plant response rating, Pigweed [10, 15]: 100 | Plant response rating, Pigweed [10, 16]: 80 | Plant response rating, Pigweed [10, 17]: 100 | Corn plant response rating [11, 14]: 0 | Plant response rating, Corn [11, 15]: 0 | Plant response rating, Corn [11, 16]: 0 | Plant response rating, Corn [11, 17]: 0 | Morningglory plant response rating [12, 14]: 0 | Plant response rating, Morningglory [12, 15]: 10 | Plant response rating, Morningglory [12, 16]: 20 | Plant response rating, Morningglory [12, 17]: 80

Cc1cc(C)cc(-n2c(-c3ccccc3)ncc(C(=O)C3=C(O)CCCC3=O)c2=O)c1 [Compound 33]
Plant response rating, Flood, Barnyardgrass [1]: 40 | Plant response rating, Barnyardgrass [1, 18]: 0 | Plant response rating, Barnyardgrass [1, 13]: 20 | Plant response rating, Barnyardgrass [1, 19]: 30 | Plant response rating, Flood, Sedge, Umbrella [2]: 85 | Plant response rating, Sedge, Umbrella [2, 18]: 20 | Plant response rating, Sedge, Umbrella [2, 13]: 30 | Plant response rating, Sedge, Umbrella [2, 19]: 50 | Plant response rating, Flood, Ducksalad [3]: 95 | Plant response rating, Ducksalad [3, 18]: 60 | Plant response rating, Ducksalad [3, 13]: 75 | Plant response rating, Ducksalad [3, 19]: 80 | Plant response rating, Flood, Rice [4]: 50 | Plant response rating, Rice [4, 18]: 0 | Plant response rating, Rice [4, 13]: 0 | Plant response rating, Rice [4, 19]: 20 | Velvetleaf plant response rating [5, 14]: 100 | Plant response rating, Velvetleaf [5, 15]: 100 | Plant response rating, Velvetleaf [5, 16]: 50 | Plant response rating, Velvetleaf [5, 17]: 80 | Wheat plant response rating [6, 14]: 0 | Plant response rating, Wheat [6, 15]: 20 | Plant response rating, Wheat [6, 16]: 0 | Plant response rating, Wheat [6, 17]: 10 | Foxtail, Giant plant response rating [7, 14]: 60 | Plant response rating, Foxtail, Giant [7, 15]: 100 | Plant response rating, Foxtail, Giant [7, 16]: 30 | Plant response rating, Foxtail, Giant [7, 17]: 90 | Barnyardgrass plant response rating [8, 14]: 80 | Plant response rating, Barnyardgrass [8, 15]: 100 | Plant response rating, Barnyardgrass [8, 16]: 10 | Plant response rating, Barnyardgrass [8, 17]: 90 | Crabgrass, Large plant response rating [9, 14]: 70 | Plant response rating, Crabgrass, Large [9, 15]: 100 | Plant response rating, Crabgrass, Large [9, 16]: 80 | Plant response rating, Crabgrass, Large [9, 17]: 100 | Pigweed plant response rating [10, 14]: 90 | Plant response rating, Pigweed [10, 15]: 100 | Plant response rating, Pigweed [10, 16]: 80 | Plant response rating, Pigweed [10, 17]: 90 | Corn plant response rating [11, 14]: 0 | Plant response rating, Corn [11, 15]: 20 | Plant response rating, Corn [11, 16]: 0 | Plant response rating, Corn [11, 17]: 30 | Morningglory plant response rating [12, 14]: 80 | Plant response rating, Morningglory [12, 15]: 90 | Plant response rating, Morningglory [12, 16]: 0 | Plant response rating, Morningglory [12, 17]: 50

Cc1ccccc1-n1c(-c2cccc(Cl)c2)ncc(C(=O)C2=C(O)CCCC2=O)c1=O [Compound 36]
Plant response rating, Flood, Barnyardgrass [1]: 15 | Plant response rating, Barnyardgrass [1, 18]: 0 | Plant response rating, Barnyardgrass [1, 13]: 0 | Plant response rating, Barnyardgrass [1, 19]: 0 | Plant response rating, Flood, Sedge, Umbrella [2]: 20 | Plant response rating, Sedge, Umbrella [2, 18]: 0 | Plant response rating, Sedge, Umbrella [2, 13]: 0 | Plant response rating, Sedge, Umbrella [2, 19]: 0 | Plant response rating, Flood, Ducksalad [3]: 40 | Plant response rating, Ducksalad [3, 18]: 0 | Plant response rating, Ducksalad [3, 13]: 0 | Plant response rating, Ducksalad [3, 19]: 0 | Plant response rating, Flood, Rice [4]: 35 | Plant response rating, Rice [4, 18]: 0 | Plant response rating, Rice [4, 13]: 0 | Plant response rating, Rice [4, 19]: 20 | Velvetleaf plant response rating [5, 14]: 100 | Plant response rating, Velvetleaf [5, 15]: 100 | Plant response rating, Velvetleaf [5, 16]: 60 | Plant response rating, Velvetleaf [5, 17]: 100 | Wheat plant response rating [6, 14]: 0 | Plant response rating, Wheat [6, 15]: 0 | Plant response rating, Wheat [6, 16]: 0 | Plant response rating, Wheat [6, 17]: 20 | Foxtail, Giant plant response rating [7, 14]: 80 | Plant response rating, Foxtail, Giant [7, 15]: 100 | Plant response rating, Foxtail, Giant [7, 16]: 10 | Plant response rating, Foxtail, Giant [7, 17]: 60 | Barnyardgrass plant response rating [8, 14]: 90 | Plant response rating, Barnyardgrass [8, 15]: 100 | Plant response rating, Barnyardgrass [8, 16]: 10 | Plant response rating, Barnyardgrass [8, 17]: 50 | Crabgrass, Large plant response rating [9, 14]: 80 | Plant response rating, Crabgrass, Large [9, 15]: 100 | Plant response rating, Crabgrass, Large [9, 16]: 10 | Plant response rating, Crabgrass, Large [9, 17]: 80 | Pigweed plant response rating [10, 14]: 90 | Plant response rating, Pigweed [10, 15]: 100 | Plant response rating, Pigweed [10, 16]: 0 | Plant response rating, Pigweed [10, 17]: 80 | Corn plant response rating [11, 14]: 0 | Plant response rating, Corn [11, 15]: 60 | Plant response rating, Corn [11, 16]: 0 | Plant response rating, Corn [11, 17]: 0 | Morningglory plant response rating [12, 14]: 50 | Plant response rating, Morningglory [12, 15]: 100 | Plant response rating, Morningglory [12, 16]: 0 | Plant response rating, Morningglory [12, 17]: 30
